Like-named read-outs stand apart in the source and are kept apart here.
Experiments:
[1] = system: CsgA gene expression (csgBAC promoter-GFP reporter) in E. coli UTI89; experiment: In vitro live cell fluorescent reporter assay of CsgA transcription (Reporter Assay); format: cell-based; settings: Escherichia coli
Summary of the method: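 Chromosomal single-copy csgBAC promoter–GFP reporter in E. coli UTI89, started at OD600 0.003 in YESCA broth with compound (0.14–100 μM, 1% DMSO), 20 h at 27 °C. GFP (ex 485/em 525 nm) background-subtracted and normalized to vehicle; IC50 and X[50] from curve fits. OD600 tracked growth effects.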

[2] = target: T1, E. coli CsgA (Escherichia coli, UniProt P28307); experiment: In vitro ThioflavinT assay of CsgA aggregation (CsgA ThT Assay); format: biochemical; settings: 1005 minutes; for remaining activity at 25 µM: compound 25 μM; for remaining activity at 100 µM: compound 100 μM
T1 construct: made in house; host or cells: E. coli NEB 3016 slyD::kan, pET11d
Summary of the method: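 Purified C-terminal His-tagged CsgA, monomerised by desalting and 30-kDa filtration, at 2-20 μM with 20-40 μM ThT in 50 mM potassium phosphate pH 7.3, 1% DMSO, compounds 3.125-200 uM; room temperature, fluorescence (ex 438/em 495 nm) read every 15 min. Background-subtracted signal expressed as percent inhibition versus vehicle at 6-6.5 or 8-9 h, or as percent control AUC.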

[3] = read-out: Reporter Assay Abs IC50 (activity range), median Abs IC50 in the CsgA reporter assay, class symbol
[4] = read-out: Reporter Assay Abs IC50 (μM), median Abs IC50 in the CsgA reporter assay, N/A = maximum expression reduction is <50% of control
[5] = read-out: CsgA ThT Assay (10 μM CsgA) % Control AUC at 1005 minutes, 25 μM (activity range), CsgA 10 μM, black plates, class symbol
[6] = read-out: CsgA ThT Assay (10 μM CsgA) % Control AUC at 1005 minutes, 25 μM, mean AUC as % of DMSO control, CsgA 10 μM, black plates
[7] = read-out: CsgA ThT Assay (10 μM CsgA) % Control AUC at 1005 minutes, 100 μM (activity range), CsgA 10 μM, black plates, class symbol
[8] = read-out: CsgA ThT Assay (10 μM CsgA) % Control AUC at 1005 minutes, 100 μM, mean AUC as % of DMSO control, CsgA 10 μM, black plates

T1 sequence (P28307 23-151): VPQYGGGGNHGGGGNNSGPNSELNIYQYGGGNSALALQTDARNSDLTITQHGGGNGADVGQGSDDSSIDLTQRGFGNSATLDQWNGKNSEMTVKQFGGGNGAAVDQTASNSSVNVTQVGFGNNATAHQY

SMILES | IC50 [1, 3] | IC50 [1, 4] | remaining activity at 25 µM [2, 5] | remaining activity at 25 µM [2, 6] | remaining activity at 100 µM [2, 7] | remaining activity at 100 µM [2, 8]
C=Cc1c(Cc2cccc3ccccc23)c(-c2cccc(C(F)(F)F)c2)c2n(c1=O)C(C(=O)O)CN(C)S2(=O)=O (stereo not drawn) [Compound 078, 2-methyl-8-(naphthalen-1-ylmethyl)-6-oxo-9-(3-(trifluoromethyl)phenyl)-7-vinyl-3,4-dihydro-2H,6H-pyrido[1,2-e][1,2,5]thiadiazine-4-carboxylic acid 1,1-dioxide] | 4.6 to 10 µM | 5.1 µM | 11 to 31% | 19% | 11 to 31% | 12%
CN1CC(C(=O)O)n2c(c(-c3cccc(C(F)(F)F)c3)c(Cc3cccc4ccccc34)c(N3CCOCC3)c2=O)S1(=O)=O (stereo not drawn) [Compound 079, 2-methyl-7-morpholino-8-(naphthalen-1-ylmethyl)-6-oxo-9-(3-(trifluoromethyl)phenyl)-3,4-dihydro-2H,6H-pyrido[1,2-e][1,2,5]thiadiazine-4-carboxylic acid 1,1-dioxide] | > 10 µM | 10.7 µM | 31 to 60% | 40% | 11 to 31% | 14%
O=C(O)C1CNc2c(-c3cccc(C(F)(F)F)c3)c(Cc3cccc4ccccc34)cc(=O)n21 (stereo not drawn) [Compound 080, 7-(naphthalen-1-ylmethyl)-5-oxo-8-(3-(trifluoromethyl)phenyl)-1,2,3,5-tetrahydroimidazo[1,2-a]pyridine-3-carboxylic acid] | > 10 µM | 26.3 µM | > 60% | 80% | > 60% | 72%
O=C(O)C1CS(=O)(=O)c2c(-c3cccc(C(F)(F)F)c3)c(C(F)(F)c3cccc4ccccc34)cc(=O)n21 (stereo not drawn) [Compound 081, 7-(difluoro(naphthalen-1-yl)methyl)-5-oxo-8-(3-(trifluoromethyl)phenyl)-2,3-dihydro-5H-thiazolo[3,2-a]pyridine-3-carboxylic acid 1,1-dioxide] | > 10 µM | 16.5 µM | 11 to 31% | 25% | 11 to 31% | 24%
Nc1c(Cc2cccc3ccccc23)c(-c2cccc(C(F)(F)F)c2)c2n(c1=O)C(C(=O)O)CNS2(=O)=O (stereo not drawn) [Compound 082, 7-amino-8-(naphthalen-1-ylmethyl)-6-oxo-9-(3-(trifluoromethyl)phenyl)-3,4-dihydro-2H,6H-pyrido[1,2-e][1,2,5]thiadiazine-4-carboxylic acid 1,1-dioxide] | > 10 µM | 17.5 µM | 31 to 60% | 51% | 11 to 31% | 12%
CN(C)Cc1c(Cc2cccc3ccccc23)c(-c2cccc(C(F)(F)F)c2)c2n(c1=O)C(C(=O)O)CS2(=O)=O (stereo not drawn) [Compound 083, 6-((dimethylamino)methyl)-7-(naphthalen-1-ylmethyl)-5-oxo-8-(3-(trifluoromethyl)phenyl)-2,3-dihydro-5H-thiazolo[3,2-a]pyridine-3-carboxylic acid 1,1-dioxide] | > 10 µM | 14.6 µM | > 60% | 102% | > 60% | 80%
O=C(O)C1CN(CCO)S(=O)(=O)c2c(-c3cccc(C(F)(F)F)c3)c(Cc3cccc4ccccc34)cc(=O)n21 (stereo not drawn) [Compound 084, 2-(2-hydroxyethyl)-8-(naphthalen-1-ylmethyl)-6-oxo-9-(3-(trifluoromethyl)phenyl)-3,4-dihydro-2H,6H-pyrido[1,2-e][1,2,5]thiadiazine-4-carboxylic acid 1,1-dioxide] | > 10 µM | 27 µM | 31 to 60% | 57% | 11 to 31% | 19%
O=C(O)C1CN(CCCCO)S(=O)(=O)c2c(-c3cccc(C(F)(F)F)c3)c(Cc3cccc4ccccc34)cc(=O)n21 (stereo not drawn) [Compound 085, 2-(4-hydroxybutyl)-8-(naphthalen-1-ylmethyl)-6-oxo-9-(3-(trifluoromethyl)phenyl)-3,4-dihydro-2H,6H-pyrido[1,2-e][1,2,5]thiadiazine-4-carboxylic acid 1,1-dioxide] | > 10 µM | 15.3 µM | 31 to 60% | 52% | 11 to 31% | 18%
O=C(O)C1CN(CCCCCO)S(=O)(=O)c2c(-c3cccc(C(F)(F)F)c3)c(Cc3cccc4ccccc34)cc(=O)n21 (stereo not drawn) [Compound 086, 2-(5-hydroxypentyl)-8-(naphthalen-1-ylmethyl)-6-oxo-9-(3-(trifluoromethyl)phenyl)-3,4-dihydro-2H,6H-pyrido[1,2-e][1,2,5]thiadiazine-4-carboxylic acid 1,1-dioxide] | 4.6 to 10 µM | 9.6 µM | 31 to 60% | 33% | 11 to 31% | 20%
C/C=C\c1c(Cc2cccc3ccccc23)c(-c2cccc(C(F)(F)F)c2)c2n(c1=O)C(C(=O)O)CN(C)S2(=O)=O (stereo not drawn) [Compound 087, (Z)-2-methyl-8-(naphthalen-1-ylmethyl)-6-oxo-7-(prop-1-en-1-yl)-9-(3-(trifluoromethyl)phenyl)-3,4-dihydro-2H,6H-pyrido[1,2-e][1,2,5]thiadiazine-4-carboxylic acid 1,1-dioxide] | 4.6 to 10 µM | 6 µM | 11 to 31% | 30% | 11 to 31% | 15%
C/C=C/c1c(Cc2cccc3ccccc23)c(-c2cccc(C(F)(F)F)c2)c2n(c1=O)C(C(=O)O)CN(C)S2(=O)=O (stereo not drawn) [Compound 088, (E)-2-methyl-8-(naphthalen-1-ylmethyl)-6-oxo-7-(prop-1-en-1-yl)-9-(3-(trifluoromethyl)phenyl)-3,4-dihydro-2H,6H-pyrido[1,2-e][1,2,5]thiadiazine-4-carboxylic acid 1,1-dioxide] | 4.6 to 10 µM | 5.2 µM | 31 to 60% | 36% | 11 to 31% | 26%
CCCN1CC(C(=O)O)n2c(c(-c3cccc(C(F)(F)F)c3)c(Cc3cccc4ccccc34)c(N)c2=O)S1(=O)=O (stereo not drawn) [Compound 089, 7-amino-8-(naphthalen-1-ylmethyl)-6-oxo-2-propyl-9-(3-(trifluoromethyl)phenyl)-3,4-dihydro-2H,6H-pyrido[1,2-e][1,2,5]thiadiazine-4-carboxylic acid 1,1-dioxide] | 4.6 to 10 µM | 8 µM | 31 to 60% | 31% | 11 to 31% | 23%
CCCc1c(Cc2cccc3ccccc23)c(-c2cccc(C(F)(F)F)c2)c2n(c1=O)C(C(=O)O)CN(C)S2(=O)=O (stereo not drawn) [Compound 090, 2-methyl-8-(naphthalen-1-ylmethyl)-6-oxo-7-propyl-9-(3-(trifluoromethyl)phenyl)-3,4-dihydro-2H,6H-pyrido[1,2-e][1,2,5]thiadiazine-4-carboxylic acid 1,1-dioxide] | 4.6 to 10 µM | 5.9 µM | 31 to 60% | 54% | 11 to 31% | 30%
CN1CC(C(=O)O)n2c(c(-c3cccc(C(F)(F)F)c3)c(Cc3cccc4ccccc34)c(NC3CCNCC3)c2=O)S1(=O)=O (stereo not drawn) [Compound 091, 2-methyl-8-(naphthalen-1-ylmethyl)-6-oxo-7-(piperidin-4-ylamino)-9-(3-(trifluoromethyl)phenyl)-3,4-dihydro-2H,6H-pyrido[1,2-e][1,2,5]thiadiazine-4-carboxylic acid 1,1-dioxide] | 4.6 to 10 µM | 5.6 µM | > 60% | 90% | > 60% | 65%
CCN1CC(C(=O)O)n2c(c(-c3cccc(C(F)(F)F)c3)c(Cc3cccc4ccccc34)c(N)c2=O)S1(=O)=O (stereo not drawn) [Compound 092, 7-amino-2-ethyl-8-(naphthalen-1-ylmethyl)-6-oxo-9-(3-(trifluoromethyl)phenyl)-3,4-dihydro-2H,6H-pyrido[1,2-e][1,2,5]thiadiazine-4-carboxylic acid 1,1-dioxide] | > 10 µM | 18.8 µM | > 60% | 64% | 31 to 60% | 52%
